Test results from the NIST ThermoML archive (doi:10.1021/acs.jced.9b00424).
± gives the expanded uncertainty stated by the source.

Test: xn = mol fraction of the nth substance listed
Conditions: for viscosity: 100 kPa, Concentric cylinders viscometry; for viscosity / mass density: Liquid; for mass density: 101 kPa, Vibrating tube method; for surface tension liquid-gas: Pendant drop shape

CCCCCCCC(=O)O [octanoic acid] + CC(C)[C@@H]1CC[C@@H](C)C[C@H]1O
viscosity (323.15 K, x2 = 0.5): 4.79 ± 0.21 mPa·s | viscosity (323.15 K, x2 = 0.667): 5.78 ± 0.26 mPa·s | viscosity (323.15 K, x2 = 0.75): 6.12 ± 0.27 mPa·s | mass density (323.15 K, x2 = 0): 886.2 ± 10 kg/m3 | mass density (323.15 K, x2 = 0.25): 884.6 ± 10 kg/m3 | mass density (323.15 K, x2 = 0.333): 884 ± 10 kg/m3 | mass density (323.15 K, x2 = 0.5): 882.6 ± 10 kg/m3 | mass density (323.15 K, x2 = 0.667): 880.9 ± 10 kg/m3 | mass density (323.15 K, x2 = 0.75): 879.5 ± 10 kg/m3 | surface tension liquid-gas (323.52 K, x2 = 0.667): 19.52 ± 3 mN/m | surface tension liquid-gas (323.58 K, x2 = 0.25): 20.1 ± 3 mN/m | surface tension liquid-gas (323.61 K, x2 = 0.75): 20.72 ± 3 mN/m | surface tension liquid-gas (327.39 K, x2 = 0): 24.46 ± 3 mN/m | surface tension liquid-gas (328.11 K, x2 = 0.75): 20.22 ± 3 mN/m | viscosity (328.15 K, x2 = 0): 2.609 ± 0.11 mPa·s | viscosity (328.15 K, x2 = 0.25): 3.25 ± 0.13 mPa·s | viscosity (328.15 K, x2 = 0.333): 3.51 ± 0.15 mPa·s | viscosity (328.15 K, x2 = 0.5): 4.11 ± 0.18 mPa·s | viscosity (328.15 K, x2 = 0.667): 4.83 ± 0.21 mPa·s | viscosity (328.15 K, x2 = 0.75): 5.05 ± 0.23 mPa·s | mass density (328.15 K, x2 = 0): 880.9 ± 10 kg/m3 | mass density (328.15 K, x2 = 0.25): 879.5 ± 10 kg/m3 | mass density (328.15 K, x2 = 0.333): 878.9 ± 10 kg/m3 | mass density (328.15 K, x2 = 0.5): 877.6 ± 10 kg/m3 | mass density (328.15 K, x2 = 0.667): 875.9 ± 10 kg/m3 | mass density (328.15 K, x2 = 0.75): 874.4 ± 10 kg/m3 | surface tension liquid-gas (328.35 K, x2 = 0.5): 20.44 ± 3 mN/m | surface tension liquid-gas (328.41 K, x2 = 0.333): 22.47 ± 3 mN/m | surface tension liquid-gas (328.48 K, x2 = 0.667): 19.19 ± 3 mN/m | surface tension liquid-gas (328.93 K, x2 = 0.25): 19.73 ± 3 mN/m | surface tension liquid-gas (331.72 K, x2 = 0): 23.43 ± 3 mN/m | surface tension liquid-gas (332.7 K, x2 = 0.75): 19.65 ± 3 mN/m | surface tension liquid-gas (332.78 K, x2 = 0.333): 21.79 ± 3 mN/m | surface tension liquid-gas (332.97 K, x2 = 0.5): 19.47 ± 3 mN/m | viscosity (333.15 K, x2 = 0): 2.372 ± 0.096 mPa·s | viscosity (333.15 K, x2 = 0.25): 2.9 ± 0.12 mPa·s | viscosity (333.15 K, x2 = 0.333): 3.1 ± 0.13 mPa·s | viscosity (333.15 K, x2 = 0.5): 3.56 ± 0.15 mPa·s | viscosity (333.15 K, x2 = 0.667): 4.09 ± 0.18 mPa·s | viscosity (333.15 K, x2 = 0.75): 4.22 ± 0.19 mPa·s | mass density (333.15 K, x2 = 0): 876 ± 10 kg/m3 | mass density (333.15 K, x2 = 0.25): 874.7 ± 10 kg/m3 | mass density (333.15 K, x2 = 0.333): 874.1 ± 10 kg/m3 | mass density (333.15 K, x2 = 0.5): 872.9 ± 10 kg/m3 | mass density (333.15 K, x2 = 0.667): 871.2 ± 10 kg/m3 | mass density (333.15 K, x2 = 0.75): 869.4 ± 10 kg/m3 | surface tension liquid-gas (333.27 K, x2 = 0.667): 18.98 ± 3 mN/m | surface tension liquid-gas (333.38 K, x2 = 0.25): 19.41 ± 3 mN/m | viscosity (338.15 K, x2 = 0): 2.166 ± 0.088 mPa·s | viscosity (338.15 K, x2 = 0.25): 2.595 ± 0.11 mPa·s | viscosity (338.15 K, x2 = 0.333): 2.753 ± 0.12 mPa·s | viscosity (338.15 K, x2 = 0.5): 3.11 ± 0.13 mPa·s | viscosity (338.15 K, x2 = 0.667): 3.49 ± 0.15 mPa·s | viscosity (338.15 K, x2 = 0.75): 3.56 ± 0.16 mPa·s | mass density (338.15 K, x2 = 0): 871.4 ± 10 kg/m3 | mass density (338.15 K, x2 = 0.25): 870.1 ± 10 kg/m3 | mass density (338.15 K, x2 = 0.333): 869.6 ± 10 kg/m3 | mass density (338.15 K, x2 = 0.5): 868.4 ± 10 kg/m3 | mass density (338.15 K, x2 = 0.667): 866.7 ± 10 kg/m3 | mass density (338.15 K, x2 = 0.75): 864.6 ± 10 kg/m3 | viscosity (343.15 K, x2 = 0): 1.985 ± 0.081 mPa·s | viscosity (343.15 K, x2 = 0.25): 2.336 ± 0.097 mPa·s | viscosity (343.15 K, x2 = 0.333): 2.461 ± 0.1 mPa·s | viscosity (343.15 K, x2 = 0.5): 2.732 ± 0.12 mPa·s | viscosity (343.15 K, x2 = 0.667): 3.02 ± 0.13 mPa·s | viscosity (343.15 K, x2 = 0.75): 3.04 ± 0.14 mPa·s | mass density (343.15 K, x2 = 0): 867.1 ± 10 kg/m3 | mass density (343.15 K, x2 = 0.25): 865.9 ± 10 kg/m3 | mass density (343.15 K, x2 = 0.333): 865.4 ± 10 kg/m3 | mass density (343.15 K, x2 = 0.5): 864.3 ± 10 kg/m3 | mass density (343.15 K, x2 = 0.667): 862.6 ± 10 kg/m3 | mass density (343.15 K, x2 = 0.75): 860 ± 10 kg/m3 | viscosity (348.15 K, x2 = 0): 1.826 ± 0.074 mPa·s | viscosity (348.15 K, x2 = 0.25): 2.113 ± 0.088 mPa·s | viscosity (348.15 K, x2 = 0.333): 2.212 ± 0.093 mPa·s | viscosity (348.15 K, x2 = 0.5): 2.419 ± 0.1 mPa·s | viscosity (348.15 K, x2 = 0.667): 2.625 ± 0.12 mPa·s | viscosity (348.15 K, x2 = 0.75): 2.635 ± 0.12 mPa·s | mass density (348.15 K, x2 = 0): 863 ± 10 kg/m3 | mass density (348.15 K, x2 = 0.25): 862 ± 10 kg/m3 | mass density (348.15 K, x2 = 0.333): 861.5 ± 10 kg/m3 | mass density (348.15 K, x2 = 0.5): 860.4 ± 10 kg/m3 | mass density (348.15 K, x2 = 0.667): 858.7 ± 10 kg/m3 | mass density (348.15 K, x2 = 0.75): 855.7 ± 10 kg/m3 | viscosity (353.15 K, x2 = 0): 1.683 ± 0.068 mPa·s | viscosity (353.15 K, x2 = 0.25): 1.921 ± 0.08 mPa·s | viscosity (353.15 K, x2 = 0.333): 1.996 ± 0.084 mPa·s | viscosity (353.15 K, x2 = 0.5): 2.156 ± 0.093 mPa·s | viscosity (353.15 K, x2 = 0.667): 2.301 ± 0.1 mPa·s | viscosity (353.15 K, x2 = 0.75): 2.324 ± 0.1 mPa·s | mass density (353.15 K, x2 = 0): 859.3 ± 10 kg/m3 | mass density (353.15 K, x2 = 0.25): 858.3 ± 10 kg/m3 | mass density (353.15 K, x2 = 0.333): 857.9 ± 10 kg/m3 | mass density (353.15 K, x2 = 0.5): 856.7 ± 10 kg/m3 | mass density (353.15 K, x2 = 0.667): 855.1 ± 10 kg/m3 | mass density (353.15 K, x2 = 0.75): 851.6 ± 10 kg/m3
